How the values were obtained:
Assay type in all cases: functional
Conditions in all cases: read-out: ED50 (the source's name)
KB = assay: Cytotoxicity against human KB cells
HCT-15 = assay: Cytotoxicity against human HCT15 cells
OVCAR = assay: Cytotoxicity against human OVCAR cells
[1] = Cytotoxicity against human SQC1 cells

Measured: EC50

C=C1CC[C@]2(C)CC[C@]3(C)[C@H]4[C@H](O)C[C@@]5([C@@H](C)O)COC(=O)C=C[C@H]5[C@]4(C)CC[C@@]3(C(=O)OC)[C@]2(O)C1 [GALPHIMINE F]
> 4 µg/mL: all assays above

COC(=O)[C@@]12CC[C@@]3(C)[C@@H]4C=CC(=O)OC[C@]4([C@@H](C)O)C[C@@H](O)[C@@H]3[C@@]1(C)CC[C@@]1(C)CCC(C)=C[C@]12O [GALPHIMINE C]
> 4 µg/mL: all assays above

C=C1CC[C@]2(C)CC[C@]3(C)[C@H]4[C@H](OC(C)=O)[C@H](O)[C@@]5([C@H](C)O)COC(=O)C=C[C@H]5[C@]4(C)CC[C@@]3(C(=O)OC)[C@]2(O)C1 [GALPHIMINE I]
> 4 µg/mL: all assays above

COC(=O)[C@@]12CC[C@@]3(C)[C@@H]4C=CC(=O)OC[C@]4([C@@H](C)O)[C@@H](O)[C@@H](O)[C@@H]3[C@@]1(C)CC[C@@]1(C)CC=C(C)C[C@]12O [GALPHIMINE A]
> 4 µg/mL: all assays above

COC(=O)[C@@]12CC[C@@]3(C)[C@@H]4C=CC(=O)OC[C@]4([C@@H](C)O)[C@@H](OC(C)=O)[C@@H](O)[C@@H]3[C@@]1(C)CC[C@@]1(C)CC=C(C)C[C@]12O [GALPHIMINE E]
> 4 µg/mL: all assays above

COC(=O)[C@@]12CC[C@@]3(C)[C@@H]4C=CC(=O)OC[C@]4([C@@H](C)O)C[C@@H](O)[C@@H]3[C@@]1(C)CC[C@@]1(C)CC=C(C)C[C@]12O [GALPHIMINE B]
> 4 µg/mL: all assays above

C=C1CC[C@]2(C)CC[C@]3(C)[C@H]4[C@H](O)[C@H](OC(C)=O)[C@@]5([C@@H](C)O)COC(=O)C=C[C@H]5[C@]4(C)CC[C@@]3(C(=O)OC)[C@]2(O)C1 [GALPHIMINE G]
> 4 µg/mL: all assays above

C=C1CC[C@]2(C)CC[C@]3(C)[C@H]4[C@H](O)[C@H](O)[C@@]5([C@H](C)O)COC(=O)C=C[C@H]5[C@]4(C)CC[C@@]3(C(=O)OC)[C@]2(O)C1 [GALPHIMINE H]
> 4 µg/mL: all assays above

COC(=O)[C@@]12CC[C@@]3(C)[C@@H]4C=CC(=O)OC[C@]4([C@H](C)O)[C@@H](O)[C@@H](OC(C)=O)[C@@H]3[C@@]1(C)CC[C@@]1(C)CC=C(C)C[C@]12O [GALPHIMINE D]
> 4 µg/mL: all assays above

Reference: ChEMBL document CHEMBL1151176, “Isolation of nor-secofriedelanes from the sedative extracts of Galphimia glauca” (2004)
